{"source": "patent US5236955A", "about": "“Anti-fungal agent” (Washington University, priority 1992, dated 1993)", "key": {"[1]": {"tested_on": "a variety of fungal species, including C. albicans", "conditions": "Sabouraud dextrose agar; cited from earlier work"}, "[2]": {"tested_on": "C. neoformans", "assay": "Growth of C. neoformans cultures (absorbance at 600 nm)", "type": "cell-based, Cryptococcus neoformans", "conditions": "single 300 μM dose, exponential phase, 30° C., SAB, up to 24 h", "method": "(§1) Panel A, survey of the effects of several oxatetradecanoic acids on the growth of C. neoformans. A culture of C. neoformans was grown at 30° C. in SAB media to midlog phase (A600 ~0.5). A single dose of fatty acid was then added to subcultures (final concentration=300 μM). EtOH(0.1%) was used as a negative control. Amphotericin B (AmB) was added (final concentraton=55 μM) as a positive control. Aliquots were withdrawn from the subcultures 0, 0.5, 2, 4, 7, 21, and 24 h after these additions and then absorbance at 600 nm was measured. All assays were done in duplicate or triplicate. A representative test is shown. Panel B, survey of the effects of oxatetradecanoic acids, dioxatetradecanoic acids and oxatridecanoic acids on the viability of C. neoformans. Fatty acid analog was added to the cultures as in Panel A. Aliquots were withdrawn 0.5, 2, 4, 7 or 8, and 24 h later and plated on SAB-agar at various dilutions to determine the number of viable organisms/ml culture. All assays were done in duplicate. Data from a representative test are expressed as the ratio of viable cells in treated cultures relative to a control culture that received 0.1% EtOH. A positive control culture received a single dose of amphotericin B (55 μM); Panel C, dose-dependent reduction in the viability of C. neoformans after addition of 4-oxatetradecanoic acid (O4) to cultures during log-phase growth at 30° C. in SAB. A single dose of the analog was given at T=0 h in the amount indicated and aliquots of the culture were withdrawn at various times to determine the number of viable cells. All assays were done in triplicate. A representative test is shown.\nSaccharomyces cerevisiae strain YM2061 (MATa ura3-52 his3Δ200 ade2-101 lys2-801 met LEU2::pRY181 can1; Flick and Johnston, Mol. Cell. Biol. 10, 4757-4769 (1990), Candida albicans strain B311 (obtained from the American Type Tissue Culture, Rockville, Md.), or Cryptococcus neoformans strain L210425 (a clinical isolate that is part of the permanent culture collection of the Mycology Laboratory, Barnes Hospital, St. Louis, Mo.) were grown overnight at 30 C. The S. cerevisiae strain was incubated in YPD medium (1% bacto-yeast extract, Gibco, Long Island, N.Y.), 2% bacto-peptone (Gibco), 2% dextrose). The C. albicans and C. neoformans strains were grown in Sabouraud's media (SAB; 2% (w/v) dextrose, 1% bacto-peptone). The following morning the cultures were diluted into fresh medium to the desired density at 600 nm (early log phase), and subsequently incubated in a rotary shaker at 30° C. until an A600 =0.5 (mid log phase) was achieved. The culture was then divided into 10 ml aliquots. A single 10 μl aliquot of a stock solution of fatty acid analog (prepared in various concentrations using absolute ethanol) was added to the culture so that the final concentration of the compound was 100-500 μM (T=0). Ten microliters of ethanol alone was added to one 10 ml culture which served as the negative control. […] Cell viability was determined at each of these time points by (i) serially diluting the aliquot in 0.15M NaCl and counting cell number in a hemocytometer and (ii) plating 2-3 of the dilutions in triplicate onto plates of SAB/agar (C. albicans and C. neoformans) or YPD/agar (S. cerevisiae). […] The data were expressed as the ratio of viable cells/ml in the fatty acid analog treated subculture to the number of viable cells/ml in the negative (ethanol) control culture. […]"}, "[3]": {"tested_on": "C. neoformans", "assay": "Viability of C. neoformans (viable cells relative to EtOH control culture)", "type": "cell-based, Cryptococcus neoformans", "conditions": "300 μM single dose; for fungicidal / fungistatic effect on C. neoformans: screening assay; for log reduction at 300 µM: Cryptococcus neoformans, relative to 0.1% EtOH control, read-out: decrease in viable cells (converted)", "method": "as §1\nSaccharomyces cerevisiae strain YM2061 (MATa ura3-52 his3Δ200 ade2-101 lys2-801 met LEU2::pRY181 can1; Flick and Johnston, Mol. Cell. Biol. 10, 4757-4769 (1990), Candida albicans strain B311 (obtained from the American Type Tissue Culture, Rockville, Md.), or Cryptococcus neoformans strain L210425 (a clinical isolate that is part of the permanent culture collection of the Mycology Laboratory, Barnes Hospital, St. Louis, Mo.) were grown overnight at 30 C. The S. cerevisiae strain was incubated in YPD medium (1% bacto-yeast extract, Gibco, Long Island, N.Y.), 2% bacto-peptone (Gibco), 2% dextrose). The C. albicans and C. neoformans strains were grown in Sabouraud's media (SAB; 2% (w/v) dextrose, 1% bacto-peptone). The following morning the cultures were diluted into fresh medium to the desired density at 600 nm (early log phase), and subsequently incubated in a rotary shaker at 30° C. until an A600 =0.5 (mid log phase) was achieved. The culture was then divided into 10 ml aliquots. A single 10 μl aliquot of a stock solution of fatty acid analog (prepared in various concentrations using absolute ethanol) was added to the culture so that the final concentration of the compound was 100-500 μM (T=0). Ten microliters of ethanol alone was added to one 10 ml culture which served as the negative control. Amphotericin B (AmB; in the form of Fungizone, Squibb) was added (final concentration=55 μM) to another culture which served as the positive control. At T=0 and 0.5-24 h after addition of fatty acid analog to the subcultures, an aliquot was removed for determining the density of the subculture at 600 nm. Cell viability was determined at each of these time points by (i) serially diluting the aliquot in 0.15M NaCl and counting cell number in a hemocytometer and (ii) plating 2-3 of the dilutions in triplicate onto plates of SAB/agar (C. albicans and C. neoformans) or YPD/agar (S. cerevisiae). These plates were subsequently incubated at 30° C. for 24-48 hr to allow for the growth of colonies. The data were expressed as the ratio of viable cells/ml in the fatty acid analog treated subculture to the number of viable cells/ml in the negative (ethanol) control culture."}, "[4]": {"tested_on": "C. neoformans N-myristoylproteins", "assay": "Metabolic labeling of cellular N-myristoylproteins with tritiated fatty acids", "type": "cell-based", "conditions": "tritiated analog, 1 h, 30° C.", "method": "(§2) Cells were labeled for 1 h with fatty acids of equal specific activity. Total cellular proteins were reduced, denatured and subjected to SDS-PAGE. Gels were treated overnight with 1 N hydrocylamine (pH 10) at room temperature followed by EN^3 HANCE. Fluorography was performed at -80° C. The exposure time for all gels was identical (2 weeks) as was the total amount of cellular protein added to each lane (100 μg).\n(§3) Analysis of the incorporation of exogenous fatty acids into cellular proteins--Cultures of S. cerevisiae YM2061, C. albicans B311, and C. neoformans L210425 were grown overnight at 30° C. in YPD or SAB broth. In the morning, C. albicans and C. neoformans were diluted to an A600 =0.6. All cultures were subsequently shaken at 30° C. until they achieved an A600 =1.2. A 5 ml aliquot of each culture was then incubated at 30° C. with 100 μCi/ml of either [9,10(n)^3 H]myristate (NEN Research Products, Dupont, Boston, Mass.); [6,7(n)^3 H]4-oxatetradecanoate; [9,10(n)^3 H]6-oxatetradecanoate;[9,10(n)^3 H]11-oxatetradecanoate; or [10,11(n)^3 H]13-oxatetradecanoate (the final specific activity of all tritiated fatty acids=30 Ci/mmol, their final concentration=3.3 μM). The cultures were then chilled on ice for 5 min and the cells harvested by centrifugation at 4000×g for 5 min. The pellet was washed by gentle vortexing in 1 ml of phosphate buffered saline (PBS, maintained at 4° C.). The yeast cells were then pelleted by centrifugation (as above) and broken open by vortexing with 500 μm glass beads in a 200 μl solution containing 240 mM Tris-HCl, pH 6.8, 2% SDS, 0.4% β-mercaptoethanol, 0.002% bromophenol blue, and 10% glycerol. The solution was then boiled for 5 min and cellular debris was removed by centrifugation at 12,000×g for 10 min. One hundred μg [Lowry et al., J. Biol. Chem. 193, 265-275 (1951)] of lysate protein from each sample was subjected to denaturation, reduction and electrophoresis through 12% polyacrylamide gels containing 0.1% SDS [Laemmli, Nature 227, 680-685 (1970)]. Duplicate gels were incubated overnight with 1M Tris, pH 7.4, or 1N hydroxylamine, pH 10. Fluorography was performed by treating gels with EN^3 HANCE (NEN Research Products, Dupont) and, following drying, exposing them to Kodak XAR film at -80° C."}, "[5]": {"tested_on": "S. cerevisiae N-myristoylproteins", "assay": "Metabolic labeling of cellular N-myristoylproteins with tritiated fatty acids", "type": "cell-based", "conditions": "tritiated analog, 1 h, 30° C.", "method": "as §2, §3"}, "[6]": {"tested_on": "C. albicans N-myristoylproteins", "assay": "Metabolic labeling of cellular N-myristoylproteins with tritiated fatty acids", "type": "cell-based", "conditions": "tritiated analog, 1 h, 30° C.", "method": "as §2, §3"}, "[7]": {"tested_on": "human acyl CoA synthetase", "conditions": "cited from earlier work"}, "[8]": {"biological_target": "T1, human myristoylCoA:protein N-myristoyltransferase (NMT) (Homo sapiens, UniProt P30419)", "T1 sequence (P30419 1-496)": "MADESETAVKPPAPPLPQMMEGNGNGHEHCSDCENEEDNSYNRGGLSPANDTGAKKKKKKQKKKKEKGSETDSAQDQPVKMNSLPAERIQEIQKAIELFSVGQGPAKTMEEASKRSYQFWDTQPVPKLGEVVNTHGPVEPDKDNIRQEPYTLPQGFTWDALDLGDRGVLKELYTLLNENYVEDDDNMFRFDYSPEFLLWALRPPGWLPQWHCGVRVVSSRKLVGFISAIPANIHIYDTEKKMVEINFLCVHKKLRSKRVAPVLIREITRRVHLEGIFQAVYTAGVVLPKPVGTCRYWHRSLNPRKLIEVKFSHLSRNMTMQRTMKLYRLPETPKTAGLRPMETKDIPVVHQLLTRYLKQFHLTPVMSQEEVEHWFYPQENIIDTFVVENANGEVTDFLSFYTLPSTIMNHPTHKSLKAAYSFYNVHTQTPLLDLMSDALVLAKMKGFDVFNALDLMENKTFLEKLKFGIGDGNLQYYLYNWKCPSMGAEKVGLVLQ", "conditions": "cited from earlier work"}, "[9]": {"tested_on": "HIV-1", "conditions": "cited from earlier work"}}, "data": [{"smiles": "CCCCCCCCOCC(=O)O", "note": "[3-oxaundecanoic acid, reference compound]", "values": [{"measurement": "effect on growth of fungal species", "setting": "[1]", "value": "broadest spectrum and highest potency"}]}, {"smiles": "CCCCCCCCCCCOCC(=O)O", "note": "[O3, 3-oxatetradecanoic acid]", "values": [{"measurement": "effect on growth of fungal species", "setting": "[1]", "value": "inhibited growth"}, {"measurement": "effect on growth of C. neoformans, as determined by optical density", "setting": "[2]", "value": "intermediate degrees of growth retardation"}, {"measurement": "fungicidal / fungistatic effect on C. neoformans", "setting": "[3]", "value": "fungicidal"}, {"measurement": "log reduction at 300 µM", "setting": "[3]", "value": 1}]}, {"smiles": "CCCCCCCCOCCCCC(=O)O", "note": "[O6, 6-Oxatetradecanoic acid]", "values": [{"measurement": "labeling of C. neoformans N-myristoylproteins versus [3H]myristate", "setting": "[4]", "value": "more intense labeling of 20 and 16 kDa C. neoformans N-myristoylproteins than did myristate"}, {"measurement": "labeling of S. cerevisiae N-myristoylproteins versus [3H]myristate", "setting": "[5]", "value": "failed to label"}, {"measurement": "labeling of C. albicans N-myristoylproteins versus [3H]myristate", "setting": "[6]", "value": "barely labeled"}, {"measurement": "effect on growth of C. neoformans, as determined by optical density", "setting": "[2]", "value": "intermediate degrees of growth retardation"}, {"measurement": "time needed to produce the decrease in viable cells", "setting": "[3]", "value": 4, "unit": "h"}, {"measurement": "fungicidal / fungistatic effect on C. neoformans", "setting": "[3]", "value": "fungicidal"}, {"measurement": "log reduction at 300 µM", "setting": "[3]", "value": 1}]}, {"smiles": "COCCCCCCCCCCCC(=O)O", "note": "[O13, 13-oxatetradecanoic acid]", "values": [{"measurement": "substrate for human acyl CoA synthetase", "setting": "[7]", "value": "is a substrate"}, {"measurement": "substrate for human NMT", "setting": "[8]", "value": "is a substrate"}, {"measurement": "incorporation into the 55 kDa Gpal polypeptide", "setting": "[5]", "value": "not"}, {"measurement": "labeling of the 20 kDa Arfs", "setting": "[5]", "value": "comparable intensity"}, {"measurement": "fungicidal / fungistatic effect on C. neoformans", "setting": "[3]", "value": "no measurable effect on the growth"}, {"measurement": "HIV-1 replication", "setting": "[9]; acutely and chronically infected human T-lymphocyte cell lines", "value": "inhibits HIV-1 replication"}, {"measurement": "cellular toxicity at HIV-1 inhibiting doses", "setting": "[9]; human T-lymphocyte cell lines", "value": "do not cause cellular toxicity"}]}]}
